# Measurements published in publication PMC12040169 (PLOS Biology, 2025).
# Assay: in vitro
# Conditions: human, hela cells, % viability
row,Structure (SMILES),"viability at 28.5 h, 10 µM [%]"
1,Nc1ncnc(N(c2ccccc2)c2ccccc2)n1 [CBK288139],104
2,CCCc1cc(=O)[nH]c(Nc2ccc(OCC)cc2)n1 [CBK288140],112
3,Cc1ccc(Cc2nc(-c3cccnc3)no2)cc1 [CBK288141],94.3
4,Cc1cccc(/N=C(\N)Nc2nc(=O)cc(C)[nH]2)c1 [CBK288144],93.1
5,COc1ccc(-n2cnc3ccccc3c2=O)cc1 [CBK288145],94.4
6,Cc1ccc(C2C3=C(CC(C)(C)CC3=O)Nc3[nH][nH]c(=O)c32)o1 (centres unmarked) [CBK288147],104
7,O=C(COc1ccc2c(c1)OCO2)Nc1ccccn1 [CBK288148],86.6
8,O=C(Nc1ccccc1C(=O)c1ccccc1)c1ccccn1 [CBK288150],89.1
9,CCC(Oc1ccccc1)C(=O)Nc1cc(C)on1 (centres unmarked) [CBK288152],101
10,COc1ccc(Nc2nc(N)nc(CN3CC(C)CC(C)C3)n2)cc1 (centres unmarked) [CBK288154],99.2
11,CCCCCc1nnc(Nc2nc(C)cc(C)n2)[nH]1 [CBK288155],95.4
12,Cc1ccc(-c2cc(C(=O)Nc3cccnc3)[nH]n2)c(O)c1C [CBK288158],93.3
13,Cc1oc2ncn(Cc3ccccc3)c(=N)c2c1C [CBK288160],94.4
14,COc1ccc(Nc2ncnc3c2c(C)c(C)n3CCO)cc1 [CBK288161],102
15,COc1ccc(Nc2ncnc3oc(C)c(C)c23)cc1 [CBK288163],93.3
16,Cc1cc(C)nc(NC(=O)c2cccc(Cl)c2)n1 [CBK288165],90
17,Cc1ccc(C2CC(=O)c3cnc(N)nc3C2)cc1 (centres unmarked) [CBK288166],92
18,Cc1cc(C)nc(Nc2n[nH]c(-c3ccccc3Cl)n2)n1 [CBK288167],98.2
19,Nc1n[nH]c2nc(-c3ccccc3)c3c(c12)CCC3 [CBK288178],88.8
20,COc1cc2c(=O)n(C)c3nncn3c2cc1OC [CBK288182],98.1
21,Nc1nc(COc2ccc(F)cc2)nc(N2CCOCC2)n1 [CBK288183],91.5
22,C=C(C)Cn1c(=O)c2c(nc3[nH]c(C)c(C)n32)n(C)c1=O [CBK288184],102
23,Cc1cc(C)n(C(=O)c2cn3cc(Cl)ccc3n2)n1 [CBK288185],98.6
24,COc1ccc(-c2c(C)nc(N)nc2-c2ccc(OC)cc2O)cc1 [CBK288186],85.7

row,Structure (SMILES),"viability at 28.5 h, 10 µM [%]"
1,Cc1cc(C)c2c(N)c(-c3ccncc3)sc2n1 [CBK288189],88.7
2,Cc1sc2ncn(CCC(=O)O)c(=O)c2c1C [CBK288191],115
3,c1ccc(COc2ccc(-n3cnnn3)cc2)nc1 [CBK288196],83.5
4,Fc1cccc(COc2nc3ccccc3n3nnnc23)c1 [CBK288198],114
5,Cc1ccc(-c2c(N3C(=O)c4cccnc4C3=O)n[nH]c2C)cc1 [CBK288199],101
6,CC(=O)Nc1nc2[nH]c(C)c(Cc3ccccc3)c(=O)n2n1 [CBK288202],89
7,CC(C)(C)C(=O)/N=c1/[nH]nc(-c2cccnc2)s1 [CBK288203],98.3
8,Cc1ccc(C(=O)N2CCn3c2nc2ccccc23)cc1 [CBK288204],108
9,COc1cc2c(c(OC)c1OC)C(c1ccccc1C)CC(=O)N2 (centres unmarked) [CBK288205],109
10,CC(Oc1ccc(Cl)cc1)C(=O)Nc1ncccn1 (centres unmarked) [CBK288206],96.5
11,Cc1noc2nc(-c3cccnc3)cc(C(=O)O)c12 [CBK288207],92.4
12,O=C(CC12CC3CC(CC(C3)C1)C2)Nc1nc[nH]n1 [CBK288208],117
13,CC(C)c1cc2c(s1)NC(c1ccccc1)NC2=O (centres unmarked) [CBK288209],92.9
14,O=C(Nc1nc2ccccc2[nH]1)NC1CCCCC1 [CBK288210],86.1
15,O=C(CSc1ccccc1)Nc1nccs1 [CBK288213],109
16,CCn1nc(C)c(C2NC(=O)c3ccccc3N2)c1C (centres unmarked) [CBK288214],88.6
17,CCOc1cc(C)c(-c2cc(N)[nH]n2)cc1OCC [CBK288216],85.9
18,Cc1ccccc1NC(=O)c1cnn2cccnc12 [CBK288217],90.3
19,Cc1ccnc(SCC(=O)N2CCc3ccccc3C2)n1 [CBK288218],91.7
20,Cc1nc2n(n1)C(C(=O)Nc1ccc(C)c(C)c1)CC(=O)N2 (centres unmarked) [CBK288223],105
21,COc1ccc(CCC(=O)Nc2ncn(Cc3cccc(C)c3)n2)cc1 [CBK288227],91.7
22,O=C(O)c1ccc(-n2ncc3ccccc3c2=O)cc1 [CBK288229],111
23,Cc1nc2n(n1)C(c1ccccn1)C1=C(CC(C)CC1=O)N2 (centres unmarked) [CBK288230],82.9
24,COc1ccc(-c2c(-c3ccc(F)cc3)[nH]c3[nH]c(=O)[nH]c(=O)c23)cc1 [CBK288232],111

row,Structure (SMILES),"viability at 28.5 h, 10 µM [%]"
1,COc1ccc(CCNC(=O)c2ccn[nH]2)cc1OC [CBK288234],92.2
2,O=C(Nc1cccc(Cl)c1Cl)c1cnccn1 [CBK288243],105
3,CCc1noc(C)c1C(=O)Nc1ncc(C)s1 [CBK288244],95.4
4,O=C(Nc1cccnc1)c1ccc(F)cc1Cl [CBK288246],89.9
5,COc1ccccc1N1CCN(C(=O)c2c(Cl)cnn2C)CC1 [CBK288247],94.3
6,COc1ccc(C(C)(C)C)cc1NC(=O)c1ccncc1 [CBK288248],92
7,Cc1cnc(NC(=O)Cc2ccc(F)cc2)s1 [CBK288249],99.9
8,Cc1ccc(OC(C)C(=O)Nc2cc(C(C)(C)C)on2)cc1C (centres unmarked) [CBK288251],107
9,O=c1c2ccccc2n2c(=O)[nH]nc2n1-c1ccccc1 [CBK288352],104
10,COc1cc2c(cc1OC)C1=NNC(=O)C1=NC(C)(C)C2 [CBK288353],22.3
11,COc1ccc(-c2cc(=O)[nH]c(=S)s2)cc1 [CBK288355],90.5
12,CSc1ccc(-c2nc(C)c(C(C)=O)n2O)cc1 [CBK288356],92.5
13,CCCCC(=O)NCCc1ccc(S(N)(=O)=O)cc1 [CBK288360],91.5
14,O=c1c(O)c(-c2ccc(F)cc2)oc2ccccc12 [CBK288369],72.4
15,O/N=C1\CC(c2ccccc2)Oc2ccc(Cl)cc21 (centres unmarked) [CBK288370],91.1
16,COc1ccc(Cc2n[nH]c(=S)n2-c2cccnc2)cc1 [CBK288373],85.5
17,CC(C)c1n[nH]c(=S)n1C1CCc2ccccc21 (centres unmarked) [CBK288374],87.1
18,CC(Oc1cc(Cl)ccc1Cl)c1nnc(S)n1C (centres unmarked) [CBK288376],84.8
19,Cc1cc(C)cc(Nc2cc(C)n3c(=O)[nH]nc3n2)c1 [CBK288380],91.8
20,Cc1cc(=O)[nH]c2c1c(=O)[nH]n2C1CCCCCC1 [CBK288381],80.8
21,FC(F)Oc1ccc(-c2ccnc(S)n2)cc1 [CBK288385],91.9
22,O=c1c2ccccc2nc(S)n1CC(O)c1ccccc1 (centres unmarked) [CBK288386],85.8

# Same assay, conditions: human, hela cells, % viability, bulk resorufin, single well
row,Structure (SMILES),"viability at 28.5 h, 10 µM [%]"
1,CCC1(c2ccccc2)C(=O)NC(=O)N(CCN2CCOCC2)C1=O (centres unmarked) [CBK288379],88
